According to ChEMBL document CHEMBL6071176, “Development of Phloroglucinol-Linked Tris-Quaternary Ammonium Salt Antimicrobial Peptide Mimics with Low Cytotoxicity and Broad-Spectrum Antibacterial Activity” (J Med Chem, 2024):
Values after ≈ are worked out from the molar mass of the structure shown.

Columns and labels:
[1] = Selectivity index, ratio of HC50 for sheep red blood cells to MIC for Staphylococcus aureus; type: toxicity, cell-based, RBC; details: read-out: Selectivity Index
Staphylococcus aureus = experiment: Antimicrobial activity against Staphylococcus aureus assessed as inhibition of growth incubated for 18 hrs by CLSI guidelines based assay; type: functional
[2] = tested on: Stenotrophomonas maltophilia; experiment: Antimicrobial activity against Stenotrophomonas maltophilia assessed as inhibition of growth incubated for 18 hrs by CLSI guidelines based assay; type: functional
Escherichia coli = experiment: Antimicrobial activity against Escherichia coli assessed as inhibition of growth incubated for 18 hrs by CLSI guidelines based assay; type: functional
[3] = Hemolytic activity in sheep red blood cells measured after 1 hr incubation; type: toxicity, cell-based, Ovis aries, Erythrocyte
Enterococcus faecalis = experiment: Antimicrobial activity against Enterococcus faecalis assessed as inhibition of growth incubated for 18 hrs by CLSI guidelines based assay; type: functional
[4] = Cytotoxicity against human Gastric mucosal cells measured after 24 hrs by CCK-8 assay; type: toxicity, cell-based, Gastric mucosal cell

Compound | MIC (Staphylococcus aureus) | MIC [2] | MIC (Escherichia coli) | MIC (Enterococcus faecalis) | selectivity ratio [1] | HC50 at 1 h [3] | CC50 at 24 h [4]
CCCCCCCCCCCC[N+](C)(C)CCCCOc1cc(OCCCC[N+](C)(C)CCCCCCCCCCCC)cc(OCCCC[N+](C)(C)CCCCCCCCCCCC)c1.[Br-].[Br-].[Br-] | 8 µg/mL | 32 µg/mL | 8 µg/mL | 4 µg/mL | 1.38 | 11 µg/mL | –
C[N+](C)(CCCCc1ccccc1)CCCOc1cc(OCCC[N+](C)(C)CCCCc2ccccc2)cc(OCCC[N+](C)(C)CCCCc2ccccc2)c1.[Br-].[Br-].[Br-] | 8 µg/mL | 128 µg/mL | 128 µg/mL | 16 µg/mL | > 160 | > 1280 µg/mL | –
C[N+](C)(CCCCOc1cc(OCCCC[N+](C)(C)CCCc2ccccc2)cc(OCCCC[N+](C)(C)CCCc2ccccc2)c1)CCCc1ccccc1.[Br-].[Br-].[Br-] | 8 µg/mL | > 128 µg/mL | > 128 µg/mL | 16 µg/mL | > 160 | > 1280 µg/mL | –
C=C[C@]1(C)C[C@@H](OC(=O)CSC(C)(C)CNC(=O)[C@H](N)C(C)C)[C@]2(C)[C@H](C)CC[C@]3(CCC(=O)[C@H]32)[C@@H](C)[C@@H]1O [VALNEMULIN] | – | – | – | – | – | – | 45.7 µg/mL (≈ 80.9 µM)
C[C@@H](O)[C@H]1C(=O)N2C(C(=O)O)=C(S[C@@H]3CN[C@H](C(=O)N(C)C)C3)[C@H](C)[C@H]12 [MEROPENEM] | 0.5 µg/mL (≈ 1.3 µM) | 1 µg/mL (≈ 2.61 µM) | 1 µg/mL (≈ 2.61 µM) | 2 µg/mL (≈ 5.22 µM) | 2440 | 1220 µg/mL | –
CCCCCC[N+](C)(C)CCCCOc1cc(OCCCC[N+](C)(C)CCCCCC)cc(OCCCC[N+](C)(C)CCCCCC)c1.[Br-].[Br-].[Br-] | 32 µg/mL | 128 µg/mL | 128 µg/mL | 8 µg/mL | > 40 | > 1280 µg/mL | –
C[N+](C)(CCCOc1ccccc1)CCCOc1cc(OCCC[N+](C)(C)CCCOc2ccccc2)cc(OCCC[N+](C)(C)CCCOc2ccccc2)c1.[Br-].[Br-].[Br-] | 32 µg/mL | > 128 µg/mL | > 128 µg/mL | 64 µg/mL | > 40 | > 1280 µg/mL | –
CCCC[N+](C)(C)CCCCCOc1cc(OCCCCC[N+](C)(C)CCCC)cc(OCCCCC[N+](C)(C)CCCC)c1.[Br-].[Br-].[Br-] | 64 µg/mL | 128 µg/mL | 32 µg/mL | 128 µg/mL | > 20 | > 1280 µg/mL | –
CCCCCCCCCCCC[N+](C)(C)CCCCCOc1cc(OCCCCC[N+](C)(C)CCCCCCCCCCCC)cc(OCCCCC[N+](C)(C)CCCCCCCCCCCC)c1.[Br-].[Br-].[Br-] | 16 µg/mL | 64 µg/mL | 64 µg/mL | 2 µg/mL | 0.75 | 12 µg/mL | –
C[N+](C)(CCCOc1cc(OCCC[N+](C)(C)CCCc2ccccc2)cc(OCCC[N+](C)(C)CCCc2ccccc2)c1)CCCc1ccccc1.[Br-].[Br-].[Br-] | 32 µg/mL | > 128 µg/mL | > 128 µg/mL | 32 µg/mL | > 40 | > 1280 µg/mL | –
CS(=O)(=O)c1ccc([C@@H](O)[C@@H](CF)NC(=O)C(Cl)Cl)cc1 [FLORFENICOL] | – | – | – | – | – | – | 121 µg/mL (≈ 339 µM)
CCCC[N+](C)(C)CCCCOc1cc(OCCCC[N+](C)(C)CCCC)cc(OCCCC[N+](C)(C)CCCC)c1.[Br-].[Br-].[Br-] | 128 µg/mL | 128 µg/mL | 128 µg/mL | 128 µg/mL | > 10 | > 1280 µg/mL | –
CCCCCCCCCCCC[N+](C)(C)CCOc1ccccc1 [DOMIPHEN] | – | – | – | – | – | – | 74.5 µg/mL
C[N+](C)(CCCCOc1ccccc1)CCCOc1cc(OCCC[N+](C)(C)CCCCOc2ccccc2)cc(OCCC[N+](C)(C)CCCCOc2ccccc2)c1.[Br-].[Br-].[Br-] | 32 µg/mL | 128 µg/mL | 128 µg/mL | 64 µg/mL | > 40 | > 1280 µg/mL | –

Further lines, with some results ahead:

MIC (Staphylococcus aureus) | MIC [2] | MIC (Escherichia coli) | MIC (Enterococcus faecalis) | Compound | selectivity ratio [1] | HC50 at 1 h [3] | CC50 at 24 h [4]
8 µg/mL | 32 µg/mL | 32 µg/mL | 4 µg/mL | CCCCCCCCCCCC[N+](C)(C)CCCOc1cc(OCCC[N+](C)(C)CCCCCCCCCCCC)cc(OCCC[N+](C)(C)CCCCCCCCCCCC)c1.[Br-].[Br-].[Br-] | 1.25 | 10 µg/mL | –
1 µg/mL | 4 µg/mL | 2 µg/mL | 2 µg/mL | C[N+](C)(CCCCCOc1cc(OCCCCC[N+](C)(C)CCCCOc2ccccc2)cc(OCCCCC[N+](C)(C)CCCCOc2ccccc2)c1)CCCCOc1ccccc1.[Br-].[Br-].[Br-] | > 1280 | > 1280 µg/mL | < 30 µg/mL
1 µg/mL | 16 µg/mL | 16 µg/mL | 2 µg/mL | C[N+](C)(CCCCCOc1ccccc1)CCCCOc1cc(OCCCC[N+](C)(C)CCCCCOc2ccccc2)cc(OCCCC[N+](C)(C)CCCCCOc2ccccc2)c1.[Br-].[Br-].[Br-] | > 1280 | > 1280 µg/mL | –
4 µg/mL | 32 µg/mL | 32 µg/mL | 8 µg/mL | C[N+](C)(CCCCCOc1ccccc1)CCCOc1cc(OCCC[N+](C)(C)CCCCCOc2ccccc2)cc(OCCC[N+](C)(C)CCCCCOc2ccccc2)c1.[Br-].[Br-].[Br-] | > 320 | > 1280 µg/mL | –
0.5 µg/mL | 2 µg/mL | 4 µg/mL | 2 µg/mL | CCCCCCCC[N+](C)(C)CCCCCOc1cc(OCCCCC[N+](C)(C)CCCCCCCC)cc(OCCCCC[N+](C)(C)CCCCCCCC)c1.[Br-].[Br-].[Br-] | 1420 | 711 µg/mL | < 30 µg/mL
4 µg/mL | 4 µg/mL | 4 µg/mL | 2 µg/mL | CCCCCCCCCC[N+](C)(C)CCCCCOc1cc(OCCCCC[N+](C)(C)CCCCCCCCCC)cc(OCCCCC[N+](C)(C)CCCCCCCCCC)c1.[Br-].[Br-].[Br-] | 4 | 16 µg/mL | –
2 µg/mL | 32 µg/mL | 64 µg/mL | 4 µg/mL | C[N+](C)(CCCCOc1ccccc1)CCCCOc1cc(OCCCC[N+](C)(C)CCCCOc2ccccc2)cc(OCCCC[N+](C)(C)CCCCOc2ccccc2)c1.[Br-].[Br-].[Br-] | > 640 | > 1280 µg/mL | –
4 µg/mL | 4 µg/mL | 4 µg/mL | 0.5 µg/mL | CCCCCCCCCC[N+](C)(C)CCCCOc1cc(OCCCC[N+](C)(C)CCCCCCCCCC)cc(OCCCC[N+](C)(C)CCCCCCCCCC)c1.[Br-].[Br-].[Br-] | 8.5 | 34 µg/mL | –
2 µg/mL | 4 µg/mL | 4 µg/mL | 1 µg/mL | CCCCCCCC[N+](C)(C)CCCOc1cc(OCCC[N+](C)(C)CCCCCCCC)cc(OCCC[N+](C)(C)CCCCCCCC)c1.[Br-].[Br-].[Br-] | > 640 | > 1280 µg/mL | < 30 µg/mL
1 µg/mL | 2 µg/mL | 2 µg/mL | 1 µg/mL | C[N+](C)(CCCCCOc1cc(OCCCCC[N+](C)(C)CCCOc2ccccc2)cc(OCCCCC[N+](C)(C)CCCOc2ccccc2)c1)CCCOc1ccccc1.[Br-].[Br-].[Br-] | > 1280 | > 1280 µg/mL | < 30 µg/mL
0.5 µg/mL | 1 µg/mL | 2 µg/mL | 0.5 µg/mL | CCCCCCCC[N+](C)(C)CCCCOc1ccc(OCCCC[N+](C)(C)CCCCCCCC)c(OCCCC[N+](C)(C)CCCCCCCC)c1.[Br-].[Br-].[Br-] | > 2560 | > 1280 µg/mL | –
1 µg/mL | 4 µg/mL | 8 µg/mL | 2 µg/mL | CCCCCC[N+](C)(C)CCCCCOc1cc(OCCCCC[N+](C)(C)CCCCCC)cc(OCCCCC[N+](C)(C)CCCCCC)c1.[Br-].[Br-].[Br-] | > 1280 | > 1280 µg/mL | < 30 µg/mL
1 µg/mL | 2 µg/mL | 1 µg/mL | 2 µg/mL | C[N+](C)(CCCCCOc1ccccc1)CCCCCOc1cc(OCCCCC[N+](C)(C)CCCCCOc2ccccc2)cc(OCCCCC[N+](C)(C)CCCCCOc2ccccc2)c1.[Br-].[Br-].[Br-] | > 1280 | > 1280 µg/mL | < 30 µg/mL
2 µg/mL | 32 µg/mL | 64 µg/mL | 4 µg/mL | C[N+](C)(CCCCOc1cc(OCCCC[N+](C)(C)CCCCc2ccccc2)cc(OCCCC[N+](C)(C)CCCCc2ccccc2)c1)CCCCc1ccccc1.[Br-].[Br-].[Br-] | > 640 | > 1280 µg/mL | –
1 µg/mL | 4 µg/mL | 4 µg/mL | 1 µg/mL | CCCCCCCCCC[N+](C)(C)CCCOc1cc(OCCC[N+](C)(C)CCCCCCCCCC)cc(OCCC[N+](C)(C)CCCCCCCCCC)c1.[Br-].[Br-].[Br-] | 54 | 54 µg/mL | –
1 µg/mL | 16 µg/mL | 8 µg/mL | 1 µg/mL | C[N+](C)(CCCCCOc1cc(OCCCCC[N+](C)(C)CCCc2ccccc2)cc(OCCCCC[N+](C)(C)CCCc2ccccc2)c1)CCCc1ccccc1.[Br-].[Br-].[Br-] | > 1280 | > 1280 µg/mL | –
1 µg/mL | 1 µg/mL | 2 µg/mL | 1 µg/mL | CCCCCCCC[N+](C)(C)CCCCOc1cccc(OCCCC[N+](C)(C)CCCCCCCC)c1OCCCC[N+](C)(C)CCCCCCCC.[Br-].[Br-].[Br-] | 847 | 847 µg/mL | –
4 µg/mL | 64 µg/mL | > 128 µg/mL | 2 µg/mL | C[N+](C)(CCCCOc1cc(OCCCC[N+](C)(C)CCCOc2ccccc2)cc(OCCCC[N+](C)(C)CCCOc2ccccc2)c1)CCCOc1ccccc1.[Br-].[Br-].[Br-] | > 320 | > 1280 µg/mL | –
